From ChEMBL document CHEMBL4229455, “Synthesis and anticancer activity of novel bisindolylhydroxymaleimide derivatives with potent GSK-3 kinase inhibition” (Bioorg Med Chem, 2018)

Tests used:
Aurora kinase B = Aurora kinase B (Homo sapiens, UniProt Q96GD4); test: Inhibition of recombinant full length human aurora B expressed in baculovirus infected Sf9 insect cells using MBP as substrate in presence of [gamma-33P]ATP
[1] = biological target: Cyclin-dependent kinase 5/CDK5 activator 1 (Homo sapiens, UniProt Q00535); test: Inhibition of recombinant full length human CDK5/p25 expressed in bacteria using histone H1 as substrate in presence of [gamma-33P]ATP
[2] = Inhibition of domestic porcine brain full length […] using RRKHAAIGSpAYSITA as substrate in presence of [gamma-33P]ATP; design: species or system Sus scrofa domesticus
[3] = biological target: Receptor-interacting serine/threonine-protein kinase 3 (Homo sapiens, UniProt Q9Y572); test: Inhibition of recombinant full length human RIPK3 expressed in baculovirus infected Sf9 insect cells assessed as residual activity at 10 uM using MBP as substrate in presence of [gamma-33P]ATP
[4] = biological target: CDK2/Cyclin A2 (Homo sapiens) (UniProt P24941+P20248); test: Inhibition of full length human CDK2/cyclin A assessed as residual activity at 10 uM using histone H1 as substrate in presence of [gamma-33P]ATP; format: protein-complex assay
[5] = biological target: CDK9/cyclin T1 (Homo sapiens) (UniProt O60563+P50750); test: Inhibition of recombinant full length human CDK9/cyclin T expressed in baculovirus infected Sf9 insect cells assessed as residual activity at 10 uM using YSPTSPSYSPTSPSYSPTSPSKKKK as substrate in presence of [gamma-33P]ATP
[6] = biological target: Dual specificity tyrosine-phosphorylation-regulated kinase 1A (Rattus norvegicus) (UniProt Q63470); test: Inhibition of recombinant rat DYRK1A kinase domain expressed in bacteria assessed as residual activity at 10 uM using KKISGRLSPIMTEQ as substrate in presence of [gamma-33P]ATP
[7] = biological target: Serine/threonine-protein kinase pim-1 (Homo sapiens, UniProt P11309); test: Inhibition of recombinant full length human PIM1 expressed in bacteria assessed as residual activity at 10 uM using histone H1 as substrate in presence of [gamma-33P]ATP
Sus scrofa domesticus = species on record: Sus scrofa domesticus; test: Inhibition of domestic porcine brain full length […] assessed as residual activity at 10 uM using RRKHAAIGSpAYSITA as substrate in presence of [gamma-33P]ATP
K562 = test: Cytotoxicity against human K562 cells assessed as cell growth at 10 uM after 48 hrs by SRB assay relative to control; format: functional; conditions: K562, 48 h, read-out: Activity
A549 = test: Cytotoxicity against human A549 cells assessed as cell growth at 10 uM after 48 hrs by SRB assay relative to control; format: functional; conditions: A549, 48 h, read-out: Activity
NCI-H226 = test: Cytotoxicity against human NCI-H226 cells assessed as cell growth at 10 uM after 48 hrs by SRB assay relative to control; format: functional; conditions: NCI-H226, 48 h, read-out: Activity
NCI-H23 = test: Cytotoxicity against human NCI-H23 cells assessed as cell growth at 10 uM after 48 hrs by SRB assay relative to control; format: functional; conditions: NCI-H23, 48 h, read-out: Activity
NCI-H522 = test: Cytotoxicity against human NCI-H522 cells assessed as cell growth at 10 uM after 48 hrs by SRB assay relative to control; format: functional; conditions: NCI-H522, 48 h, read-out: Activity
SF-268 = test: Cytotoxicity against human SF268 cells assessed as cell growth at 10 uM after 48 hrs by SRB assay relative to control; format: functional; conditions: SF-268, 48 h, read-out: Activity
SF-295 = test: Cytotoxicity against human SF295 cells assessed as cell growth at 10 uM after 48 hrs by SRB assay relative to control; format: functional; conditions: SF-295, 48 h, read-out: Activity
SNB-75 = test: Cytotoxicity against human SNB75 cells assessed as cell growth at 10 uM after 48 hrs by SRB assay relative to control; format: functional; conditions: SNB-75, 48 h, read-out: Activity
M14 = test: Cytotoxicity against human M14 cells assessed as cell growth at 10 uM after 48 hrs by SRB assay relative to control; format: functional; conditions: M14, 48 h, read-out: Activity
UACC-62 = test: Cytotoxicity against human UACC62 cells assessed as cell growth at 10 uM after 48 hrs by SRB assay relative to control; format: functional; conditions: UACC-62, 48 h, read-out: Activity
IGROV-1 = test: Cytotoxicity against human IGROV1 cells assessed as cell growth at 10 uM after 48 hrs by SRB assay relative to control; format: functional; conditions: IGROV-1, 48 h, read-out: Activity
OVCAR-5 = test: Cytotoxicity against human OVCAR5 cells assessed as cell growth at 10 uM after 48 hrs by SRB assay relative to control; format: functional; conditions: OVCAR-5, 48 h, read-out: Activity
OVCAR-8 = test: Cytotoxicity against human OVCAR8 cells assessed as cell growth at 10 uM after 48 hrs by SRB assay relative to control; format: functional; conditions: OVCAR-8, 48 h, read-out: Activity
NCI/ADR-RES = test: Cytotoxicity against human NCI-ADR-RES cells assessed as cell growth at 10 uM after 48 hrs by SRB assay relative to control; format: functional; conditions: read-out: Activity
ACHN = test: Cytotoxicity against human ACHN cells assessed as cell growth at 10 uM after 48 hrs by SRB assay relative to control; format: functional; conditions: read-out: Activity
CAKI-1 = test: Cytotoxicity against human Caki1 cells assessed as cell growth at 10 uM after 48 hrs by SRB assay relative to control; format: functional; conditions: CAKI-1, 48 h, read-out: Activity
MCF7 = test: Cytotoxicity against human MCF7 cells assessed as cell growth at 10 uM after 48 hrs by SRB assay relative to control; format: functional; conditions: MCF7, 48 h, read-out: Activity
NCI-H322M = test: Cytotoxicity against human NCI-H322M cells assessed as cell growth at 10 uM after 48 hrs by SRB assay relative to control; format: functional; conditions: read-out: Activity
COLO 205 = test: Cytotoxicity against human COLO205 cells assessed as cell growth at 10 uM after 48 hrs by SRB assay relative to control; format: functional; conditions: COLO 205, 48 h, read-out: Activity
786-0 = test: Cytotoxicity against human 786-O cells assessed as cell growth at 10 uM after 48 hrs by SRB assay relative to control; format: functional; conditions: 786-0, 48 h, read-out: Activity
MDA-MB-468 = test: Cytotoxicity against human MDA-MB-468 cells assessed as cell growth at 10 uM after 48 hrs by SRB assay relative to control; format: functional; conditions: MDA-MB-468, 48 h, read-out: Activity

Chain of Receptor-interacting serine/threonine-protein kinase 3 (Q9Y572 whole entry, looked up): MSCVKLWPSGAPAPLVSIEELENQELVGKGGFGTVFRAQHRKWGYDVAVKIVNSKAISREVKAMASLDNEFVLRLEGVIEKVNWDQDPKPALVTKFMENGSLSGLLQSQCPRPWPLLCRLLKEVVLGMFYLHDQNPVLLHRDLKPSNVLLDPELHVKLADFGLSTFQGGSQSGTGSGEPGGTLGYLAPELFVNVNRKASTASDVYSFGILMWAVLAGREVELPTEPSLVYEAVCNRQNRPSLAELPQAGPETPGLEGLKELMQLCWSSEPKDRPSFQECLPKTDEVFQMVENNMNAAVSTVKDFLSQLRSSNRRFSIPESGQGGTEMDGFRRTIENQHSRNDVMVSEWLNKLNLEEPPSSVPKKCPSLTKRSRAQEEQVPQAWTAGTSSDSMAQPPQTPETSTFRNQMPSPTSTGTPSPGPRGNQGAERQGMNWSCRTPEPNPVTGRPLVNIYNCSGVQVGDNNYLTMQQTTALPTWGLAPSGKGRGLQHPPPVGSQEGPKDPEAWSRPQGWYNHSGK
Chain of Serine/threonine-protein kinase pim-1 (P11309 whole entry, looked up): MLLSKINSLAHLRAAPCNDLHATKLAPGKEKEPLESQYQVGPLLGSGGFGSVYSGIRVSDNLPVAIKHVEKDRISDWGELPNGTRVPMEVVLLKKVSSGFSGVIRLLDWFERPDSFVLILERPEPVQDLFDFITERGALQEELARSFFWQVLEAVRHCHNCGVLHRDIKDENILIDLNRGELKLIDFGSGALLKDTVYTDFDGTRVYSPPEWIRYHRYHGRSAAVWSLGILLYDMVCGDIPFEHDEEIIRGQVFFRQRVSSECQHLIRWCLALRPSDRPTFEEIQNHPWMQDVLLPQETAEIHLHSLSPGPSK
Chain of Aurora kinase B (Q96GD4 whole entry): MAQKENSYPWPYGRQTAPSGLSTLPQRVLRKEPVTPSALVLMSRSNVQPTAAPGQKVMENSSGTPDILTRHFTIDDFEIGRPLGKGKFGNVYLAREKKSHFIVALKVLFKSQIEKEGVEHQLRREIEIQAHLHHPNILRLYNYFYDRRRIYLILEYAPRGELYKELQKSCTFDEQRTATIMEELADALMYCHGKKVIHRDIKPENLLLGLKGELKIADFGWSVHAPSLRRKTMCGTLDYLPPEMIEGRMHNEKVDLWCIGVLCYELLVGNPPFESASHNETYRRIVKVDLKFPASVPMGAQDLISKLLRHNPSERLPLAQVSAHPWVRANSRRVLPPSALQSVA
Chain of Cyclin-dependent kinase 5/CDK5 activator 1 (Q00535 whole entry): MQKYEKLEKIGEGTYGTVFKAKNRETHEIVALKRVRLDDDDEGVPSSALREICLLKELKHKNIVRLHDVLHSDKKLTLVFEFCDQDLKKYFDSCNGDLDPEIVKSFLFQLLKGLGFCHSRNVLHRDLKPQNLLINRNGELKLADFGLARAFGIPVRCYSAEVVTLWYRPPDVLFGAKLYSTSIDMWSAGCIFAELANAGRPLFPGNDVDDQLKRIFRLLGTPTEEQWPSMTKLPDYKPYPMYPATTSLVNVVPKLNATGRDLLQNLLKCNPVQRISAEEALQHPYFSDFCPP
Chain of Cyclin-dependent kinase 5/CDK5 activator 1 (Q15078 whole entry, further chain): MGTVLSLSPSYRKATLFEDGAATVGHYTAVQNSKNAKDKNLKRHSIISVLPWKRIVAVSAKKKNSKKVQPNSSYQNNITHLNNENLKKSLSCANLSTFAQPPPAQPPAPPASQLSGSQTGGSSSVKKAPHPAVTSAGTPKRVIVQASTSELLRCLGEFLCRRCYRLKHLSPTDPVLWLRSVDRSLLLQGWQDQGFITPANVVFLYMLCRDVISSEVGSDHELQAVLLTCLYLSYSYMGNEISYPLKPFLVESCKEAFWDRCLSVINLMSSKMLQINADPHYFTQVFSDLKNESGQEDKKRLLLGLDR

SMILES	IC50 (Aurora kinase B)	IC50 [1]	IC50 [2]	Activity [3]	Activity [4]	Activity [5]	Activity [6]	Activity [7]	Activity (Sus scrofa domesticus)	growth at 10 µM (K562)	growth at 10 µM (A549)	growth at 10 µM (NCI-H226)	growth at 10 µM (SF-268)	growth at 10 µM (SF-295)	growth at 10 µM (SNB-75)	growth at 10 µM (M14)	growth at 10 µM (IGROV-1)	growth at 10 µM (OVCAR-5)	growth at 10 µM (OVCAR-8)	growth at 10 µM (NCI/ADR-RES)	other results
Cn1cc(C2=C(c3c[nH]c4ccccc34)C(=O)N(O)C2=O)c2ccccc21	> 10 µM	> 10 µM	> 10 µM	100%	77%	19%	46%	8%	40%	50.2%	91.9%	76.9%	90.4%	88.8%	72.5%	81%	83%	95%	95.6%	89.5%	growth at 10 µM (NCI-H23): 76.9%; growth at 10 µM (NCI-H522): 56.3%; growth at 10 µM (UACC-62): 77.4%; growth at 10 µM (ACHN): 77.9%; growth at 10 µM (CAKI-1): 61.5%; growth at 10 µM (MCF7): 30.9%; growth at 10 µM (NCI-H322M): 81.9%; growth at 10 µM (COLO 205): 86%; growth at 10 µM (786-0): 82%
Cn1cc(C2=C(c3cn(C)c4ccccc34)C(=O)N(O)C2=O)c2ccccc21	> 10 µM	> 10 µM	> 10 µM	100%	83%	38%	81%	33%	104%	100%	87.8%	88.7%	112%	104%	90.3%	105%	109%	105%	96.5%	102%	growth at 10 µM (NCI-H522): 98.4%; growth at 10 µM (ACHN): 101%; growth at 10 µM (CAKI-1): 90.1%; growth at 10 µM (MCF7): 86.2%; growth at 10 µM (MDA-MB-468): 86.4%; growth at 10 µM (NCI-H322M): 103%; growth at 10 µM (COLO 205): 104%; growth at 10 µM (786-0): 103%
CC(C)n1cc(C2=C(c3c[nH]c4ccccc34)C(=O)N(O)C2=O)c2ccccc21	> 10 µM	> 10 µM	> 10 µM	97%	71%	44%	73%	24%	72%	86.3%	102%	102%	104%	99.7%	82.6%	98.9%	111%	105%	107%	102%	growth at 10 µM (NCI-H23): 88.2%; growth at 10 µM (NCI-H522): 76.4%; growth at 10 µM (UACC-62): 90%; growth at 10 µM (ACHN): 99.6%; growth at 10 µM (CAKI-1): 78.3%; growth at 10 µM (MCF7): 77.1%; growth at 10 µM (NCI-H322M): 103%; growth at 10 µM (COLO 205): 98.5%; growth at 10 µM (786-0): 77.9%
CC(C)n1cc(C2=C(c3cn(C)c4ccccc34)C(=O)N(O)C2=O)c2ccccc21	> 10 µM	> 10 µM	> 10 µM	103%	23%	-7%	54%	28%	98%	77.7%	97.1%	77.2%	97.3%	101%	84.9%	94.8%	96.2%	90.3%	94.8%	92.4%	growth at 10 µM (NCI-H23): 81.8%; growth at 10 µM (NCI-H522): 84.7%; growth at 10 µM (UACC-62): 78.2%; growth at 10 µM (ACHN): 88%; growth at 10 µM (CAKI-1): 72.7%; growth at 10 µM (MCF7): 91.6%; growth at 10 µM (NCI-H322M): 91.7%; growth at 10 µM (COLO 205): 101%; growth at 10 µM (786-0): 86.5%
Cn1cc(C2=C(c3cn(CCCCCC#N)c4ccccc34)C(=O)N(O)C2=O)c2ccccc21	> 10 µM	> 10 µM	> 10 µM	105%	64%	17%	24%	52%	88%	78.8%	95.8%	77.8%	94.9%	107%	68%	100%	93.8%	117%	100%	102%	growth at 10 µM (NCI-H23): 88.1%; growth at 10 µM (UACC-62): 82%; growth at 10 µM (ACHN): 97.4%; growth at 10 µM (CAKI-1): 81.3%; growth at 10 µM (MCF7): 77.7%; growth at 10 µM (MDA-MB-468): 87.5%; growth at 10 µM (NCI-H322M): 98%; growth at 10 µM (COLO 205): 92.6%; growth at 10 µM (786-0): 83.7%
